Patent publication US8383624B2 (Abbott Laboratories, priority 2009, dated 2013)

Target: T1, Cdc7 (BEV coexpressed huCDC7/DBF4) (Homo sapiens, UniProt O00311)
T1 construct: made in house; host or cells: baculovirus expression vector (BEV) system
Test: Cdc7 enzyme inhibition assay ([33P]-ATP, biotinylated peptide substrate, FlashPlate)
Assay type: biochemical
Procedure: Cdc7 (BEV coexpressed huCDC7/DBF4) is prepared internally. Cdc7 assays are conducted as follows with final concentrations as listed. In 384-well v-bottom polypropylene plates, 6 L compound (2% DMSO), is mixed with 6 µL of Cdc7 (2 μg/mL), and Jerini peptide substrate A-All (biotin-C6linker-TPSDSLIYDDGLS) (2 μM), followed by immediate initiation with 6 L […] (1 μM, 20 mCi/μmol) using a reaction buffer comprising 25 mM HEPES, pH 7.5, 1 mM DTT, 10 mM MgCl2, 100 μM Na3VO4, 0.075 mg/ml Triton X-100. Reactions are quenched after 1 hr by the addition of 90 L stop buffer (50 mM EDTA, 2M NaCl). 85 μL of the stopped reactions are transferred to 384-well streptavidin-coated plates (FlashPlate Plus, Perkin Elmer), incubated 30 minutes at room temperature and washed 3 times with 0.05% Tween-20/PBS using an ELX-405 automated plate washer (BioTek), and counted on a TopCount Scintillation Plate Reader (Packard). IC50 values are determined via non-linear regression fitting of enzyme inhibition data and corresponding Ki values are generated assuming ATP-competitive (equilibrium) inhibition and using the experimentally determined apparent ATP Km of 0.7 μM (as determined using the above assay condition, but varying ATP). Table 1 depicts enzyme inhibition data (Ki) for exemplary compounds. In Table 1, “A” represents a Ki of less than 10 nM, “B” represents a Ki of between 10 nM and 100 nM, and “C” represents a Ki of greater than 100 nM.
Table 2 depicts enzyme inhibition data (Ki) for examples 27-43 using the same assay as example 26. In Table 2, “A” represents a Ki of less than 10 nM, “B” represents a Ki of between 10 nM and 100 nM, and “C” represents a Ki of greater than 100 nM.

[1] = Table 1, Ki from IC50 assuming ATP-competitive inhibition, apparent ATP Km 0.7 μM, 1 μM ATP
[2] = Table 2, same assay as example 26

T1 sequence (O00311 whole entry): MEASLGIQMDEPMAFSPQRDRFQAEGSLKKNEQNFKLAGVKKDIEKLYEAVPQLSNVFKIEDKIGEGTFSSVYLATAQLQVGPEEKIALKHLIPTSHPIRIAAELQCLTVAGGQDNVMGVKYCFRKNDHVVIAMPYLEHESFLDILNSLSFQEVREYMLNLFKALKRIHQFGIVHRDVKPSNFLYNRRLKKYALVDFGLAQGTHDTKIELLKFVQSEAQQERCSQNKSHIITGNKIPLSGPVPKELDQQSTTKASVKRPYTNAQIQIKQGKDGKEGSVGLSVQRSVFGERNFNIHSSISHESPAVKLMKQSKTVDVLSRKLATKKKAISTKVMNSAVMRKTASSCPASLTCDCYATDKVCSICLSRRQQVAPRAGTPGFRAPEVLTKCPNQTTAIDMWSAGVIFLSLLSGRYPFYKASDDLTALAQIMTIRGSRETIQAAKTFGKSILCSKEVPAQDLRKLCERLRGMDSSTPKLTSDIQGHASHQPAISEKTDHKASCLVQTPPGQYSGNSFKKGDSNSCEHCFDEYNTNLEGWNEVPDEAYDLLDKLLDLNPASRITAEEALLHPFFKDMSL
T1 sequence (Q9UBU7 whole entry partner): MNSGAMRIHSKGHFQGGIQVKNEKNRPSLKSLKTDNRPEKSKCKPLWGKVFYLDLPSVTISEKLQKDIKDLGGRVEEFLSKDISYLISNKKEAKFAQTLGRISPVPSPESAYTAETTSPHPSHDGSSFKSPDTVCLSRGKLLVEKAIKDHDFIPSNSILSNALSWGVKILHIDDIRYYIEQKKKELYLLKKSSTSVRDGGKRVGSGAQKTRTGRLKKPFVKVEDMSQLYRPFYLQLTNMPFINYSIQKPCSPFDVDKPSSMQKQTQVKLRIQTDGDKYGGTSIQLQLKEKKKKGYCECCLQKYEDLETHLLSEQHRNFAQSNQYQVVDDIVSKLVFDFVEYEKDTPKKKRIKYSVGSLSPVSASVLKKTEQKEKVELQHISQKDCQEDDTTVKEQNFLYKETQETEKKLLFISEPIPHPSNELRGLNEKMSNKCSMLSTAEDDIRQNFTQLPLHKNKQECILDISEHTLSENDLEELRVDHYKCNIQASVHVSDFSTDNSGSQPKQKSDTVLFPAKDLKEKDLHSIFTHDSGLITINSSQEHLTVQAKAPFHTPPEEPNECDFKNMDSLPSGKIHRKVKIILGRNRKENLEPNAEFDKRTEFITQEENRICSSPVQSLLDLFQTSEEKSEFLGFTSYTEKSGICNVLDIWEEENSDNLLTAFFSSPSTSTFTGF

Compound | Ki [1] [nM] | Ki [2] [nM]
O=C1CCC(C(=O)N[C@H]2CC[C@H](Nc3cc(-c4c[nH]c5nccnc45)cc(Cl)n3)CC2)N1 (relative stereo) [Example 20, N-(trans 4-(6-chloro-4-(5H-pyrrolo[3,2-b]pyrazin-7-yl)pyridin-2-ylamino)cyclohexyl)-5-oxopyrrolidine-2-carboxamide] | < 10 | 
CCN1CCC(C(=O)N[C@H]2CC[C@H](Nc3cc(-c4c[nH]c5nccnc45)cc(Cl)n3)CC2)C1 (relative stereo) [Example 29, N-(trans-4-{[6-chloro-4-(5H-pyrrolo[2,3-b]pyrazin-7-yl)pyridin-2-yl]amino}cyclohexyl)-1-ethylpyrrolidine-3-carboxamide] |  | < 10
C[C@@H](C(=O)N[C@H]1CC[C@H](Nc2cc(-c3c[nH]c4nccnc34)cc(Cl)n2)CC1)N(C)C (relative stereo) [Example 32, N-(trans-4-{[6-chloro-4-(5H-pyrrolo[2,3-b]pyrazin-7-yl)pyridin-2-yl]amino}cyclohexyl)-N^2,N^2-dimethylalaninamide] |  | < 10
O=C(C1CC1)N1CCCC(Nc2cc(-c3c[nH]c4nccnc34)cc(Cl)n2)C1 (centres unmarked) [Example 5, (3-(6-chloro-4-(5H-pyrrolo[2,3-b]pyrazin-7-yl)pyridin-2-ylamino)piperidin-1-yl)(cyclopropyl)methanone] | < 10 | 
CS(=O)(=O)N1CCCC(Nc2cc(-c3c[nH]c4nccnc34)cc(Cl)n2)C1 (centres unmarked) [Example 6, 6-chloro-N-(1-(methylsulfonyl)piperidin-3-yl)-4-(5H-pyrrolo[2,3-b]pyrazin-7-yl)pyridin-2-amine] | < 10 | 
O=C(N[C@H]1CC[C@H](Nc2cc(-c3c[nH]c4nccnc34)cc(Cl)n2)CC1)C1CC1 [Example 8, N-(trans-4-(6-chloro-4-(5H-pyrrolo[2,3-b]pyrazin-7-yl)pyridin-2-ylamino)cyclohexyl)cyclopropanecarboxamide] | < 10 | 
CS(=O)(=O)N1CCCC(CNc2cc(-c3c[nH]c4nccnc34)cc(Cl)n2)C1 (centres unmarked) [Example 10, 6-chloro-N-((1-(methylsulfonyl)piperidin-3-yl)methyl)-4-(5H-pyrrolo[2,3-b]pyrazin-7-yl)pyridin-2-amine] | < 10 | 
O=C(NC1CCCC(Nc2cc(-c3c[nH]c4nccnc34)cc(Cl)n2)C1)C1CC1 (centres unmarked) [Example 11, N-(3-(6-chloro-4-(5H-pyrrolo[2,3-b]pyrazin-7-yl)pyridin-2-ylamino)cyclohexyl)cyclopropanecarboxamide] | < 10 | 
CCCCC(=O)Nc1cc(-c2c[nH]c3nccnc23)cc(Cl)n1 [Example 14, N-(6-chloro-4-(5H-pyrrolo[2,3-b]pyrazin-7-yl)pyridin-2-yl)pentanamide] | < 10 | 
O=C(Nc1cc(-c2c[nH]c3nccnc23)cc(Cl)n1)c1cccnc1 [Example 15, N-(6-chloro-4-(5H-pyrrolo[2,3-b]pyrazin-7-yl)pyridin-2-yl)nicotinamide] | < 10 | 
O=C(Nc1cc(-c2c[nH]c3nccnc23)cc(Cl)n1)C1CCNCC1 [Example 16, N-(6-chloro-4-(5H-pyrrolo[2,3-b]pyrazin-7-yl)pyridin-2-yl)piperidine-4-carboxamide] | < 10 | 
O=C(Nc1cc(-c2c[nH]c3nccnc23)cc(Cl)n1)c1ccccc1 [Example 17, N-(6-chloro-4-(5H-pyrrolo[2,3-b]pyrazin-7-yl)pyridin-2-yl)benzamide] | 10 to 100 | 
Nc1cc(-c2c[nH]c3nccnc23)cc(Cl)n1 [Example 18, 6-chloro-4-(5H-pyrrolo[2,3-b]pyrazin-7-yl)pyridin-2-amine] | < 10 | 
CC(C)(CN)CNc1cc(-c2c[nH]c3nccnc23)cc(Cl)n1 [Example 19, N^1-(6-chloro-4-(5H-pyrrolo[2,3-b]pyrazin-7-yl)pyridin-2-yl)-2,2-dimethylpropane-1,3-diamine] | < 10 | 
Clc1cc(-c2c[nH]c3nccnc23)nc(NC2CCCCC2)n1 [Example 21, 4-chloro-N-cyclohexyl-6-(5H-pyrrolo[3,2-b]pyrazin-7-yl)pyrimidin-2-amine] | > 100 | 
CCn1cc(-c2cc(Cl)nc(N[C@H]3CC[C@H](NC(=O)C4CC4)CC3)c2)c2nccnc21 [Example 22] | > 100 | 
CCn1cc(-c2cc(Cl)nc(NC3CCCC(NC(=O)CN(C)C)C3)c2)c2nccnc21 (centres unmarked) [Example 24] | > 100 | 
O=S(=O)(NC1CCCC(Nc2cc(-c3c[nH]c4nccnc34)cc(Cl)n2)C1)c1ccco1 (centres unmarked) [Example 25, N-(3-(6-chloro-4-(5H-pyrrolo[2,3-b]pyrazin-7-yl)pyridin-2-ylamino)cyclohexyl)furan-2-sulfonamide] | < 10 | 
CN1CCCC(CNc2cc(-c3c[nH]c4nccnc34)cc(Cl)n2)C1 (centres unmarked) [Example 28, 6-chloro-N-[(1-methylpiperidin-3-yl)methyl]-4-(5H-pyrrolo[2,3-b]pyrazin-7-yl)pyridin-2-amine] |  | < 10

Further lines, results first:

Ki [1] [nM] | Ki [2] [nM] | Compound
< 10 |  | Clc1cc(-c2c[nH]c3nccnc23)cc(NC2CCCCC2)n1 [Example 1, 6-chloro-N-cyclohexyl-4-(5H-pyrrolo[3,2-b]pyrazin-7-yl)pyridin-2-amine]
< 10 |  | O[C@H]1CC[C@H](Nc2cc(-c3c[nH]c4nccnc34)cc(Cl)n2)CC1 [Example 2, Trans 4-(6-chloro-4-(5H-pyrrolo[3,2-b]pyrazin-7-yl)pyridin-2-ylamino)cyclohexanol]
< 10 |  | Clc1cc(-c2c[nH]c3nccnc23)cc(NC2CCCNC2)n1 (centres unmarked) [Example 3, 6-chloro-N-(piperidin-3-yl)-4-(5H-pyrrolo[2,3-b]pyrazin-7-yl)pyridin-2-amine]
< 10 |  | CCN1CCCC(Nc2cc(-c3c[nH]c4nccnc34)cc(Cl)n2)C1 (centres unmarked) [Example 4, 6-chloro-N-(1-ethylpiperidin-3-yl)-4-(5H-pyrrolo[2,3-b]pyrazin-7-yl)pyridin-2-amine]
< 10 |  | N[C@H]1CC[C@H](Nc2cc(-c3c[nH]c4nccnc34)cc(Cl)n2)CC1 [Example 7, Trans N^1-(6-chloro-4-(5H-pyrrolo[2,3-b]pyrazin-7-yl)pyridin-2-yl)cyclohexane-1,4-diamine]
< 10 |  | CN(C)[C@H]1CC[C@H](Nc2cc(-c3c[nH]c4nccnc34)cc(Cl)n2)CC1 [Example 9, trans-N^1-(6-chloro-4-(5H-pyrrolo[2,3-b]pyrazin-7-yl)pyridin-2-yl)-N^4,N^4-dimethylcyclohexane-1,4-diamine]
< 10 |  | CN(C)C1CCCC(Nc2cc(-c3c[nH]c4nccnc34)cc(Cl)n2)C1 (centres unmarked) [Example 12, N^1-(6-chloro-4-(5H-pyrrolo[2,3-b]pyrazin-7-yl)pyridin-2-yl)-N^3,N^3-dimethylcyclohexane-1,3-diamine]
< 10 |  | CS(=O)(=O)NC1CCCC(Nc2cc(-c3c[nH]c4nccnc34)cc(Cl)n2)C1 (centres unmarked) [Example 13, N-(3-(6-chloro-4-(5H-pyrrolo[2,3-b]pyrazin-7-yl)pyridin-2-ylamino)cyclohexyl)methanesulfonamide]
< 10 |  | CN(C)CC(=O)NC1CCCC(Nc2cc(-c3c[nH]c4nccnc34)cc(Cl)n2)C1 (centres unmarked) [Example 23, N-(3-(6-chloro-4-(5H-pyrrolo[2,3-b]pyrazin-7-yl)pyridin-2-ylamino)cyclohexyl)-2-(dimethylamino)acetamide]
 | < 10 | CN1CCCC(Nc2cc(-c3c[nH]c4nccnc34)cc(Cl)n2)C1 (centres unmarked) [Example 27, 6-chloro-N-(1-methylpiperidin-3-yl)-4-(5H-pyrrolo[2,3-b]pyrazin-7-yl)pyridin-2-amine]
